Assays:
Settings in all cases: 4e 0.1 µM, HL60 lysate
TXK = assay: PamChip tyrosine kinase microarray, TXK; format: biochemical, human
Procedure: (§1) The changes in kinase activities induced by treatment with 4e were monitored within the HL60 cell lines using PamGene’s (Hertogenbosch, Netherlands) PamChip® peptide microarray profiler, which quantifies the activities of 144 tyrosine kinases (YK) ([29], [30]) (Figure 7). Results are provided as a log fold change (LFC) heatmap and Mean Kinase Statistic. From the LFC it is apparent that compound 4e, at a concentration of 0.1 µM, induced sizable changes to the activity of several kinases within the cell signaling YK profile (Figure 7A).
(§2) An Upstream Kinase tool was used to generate a putative list of kinases responsible for phosphorylating the phospho-sites on the PamChip (Figure 7B) ([31]). It is an interpretation and is highly dependent on the contents of the underlying phosphorylation databases. A Kinase Score was used for ranking kinases based on their significance and specificity in terms of the set of peptides used for the corresponding kinase. Kinase Statistics indicates the overall change of the peptide set that represents the kinase. Kinase statistics value <0 indicates lower kinase activity in the compound spiked lysate and vice versa ([32], [33]). Table 5 lists the 20 most changed kinases within treated HL60 cell lysates by 0.1 μM 4e, ranked according to their Kinase Score.
(§3) The compound 4e was spiked into HL60 cell lysate at different concentrations (0.001, 0.01, 0.1, 1, 10 and 50 μM). In addition, DMSO was also spiked in HL60 lysate at low concentration (2% v/v) as control. Samples were profiled on PamGene’s Tyrosine Kinase (PTK) arrays in technical replicates, covering a total of 196 phosphorylation sites. Frozen HL60 cultured cell pellet was sent to PamGene. At PamGene, cells were lysed using a lysis buffer and proteases inhibitors cocktail. Protein concentration was measured using standard Bradford assay as per PamGene SOPs. These lysates were further used for generating the PTK activity profiles. For spiking, 4e was received as powder form and dissolved in DMSO at PamGene facility followed by storing at -20°C in small aliquots. PamGene used its in-house bioinformatics toolbox in combination with other methods to generate hypotheses of signaling pathways.

CSK = biological target: T1, CSK (Homo sapiens, UniProt P41240); assay: PamChip tyrosine kinase microarray, CSK; format: biochemical
T1 construct: endogenous in cells; host or cells: HL60 lysate
Procedure: as §1, §2, §3

Fes = biological target: T2, Fes (Homo sapiens, UniProt P07332); assay: PamChip tyrosine kinase microarray, Fes; format: biochemical
T2 construct: endogenous in cells; host or cells: HL60 lysate
Procedure: as §1, §2, §3

Src = assay: PamChip tyrosine kinase microarray, Src; format: biochemical, human
Procedure: as §1, §2
(§4) The two multiple-kinase tests (PamChip and Phosphokinase Profiler) provided strong evidence of very minor involvement of Src in the cellular activities of 4e. However, the question must be raised about the effect of the 4e on other SRC family kinase (SFK). To address this point, we must highlight that both R&D phosphokinase profiler and PamChip feature Yes, Fgr, Lyn, Lck and Src while Fyn, Hck, Blk and Frk activities are tested in the PamChip only. The signals of SFKs in the R&D Phosphokinase Profiler were too weak to detect in both untreated (control) and 4e-treated HL60 cells. In PamChip assay, most of SFK’s were not ranked in the top 20 affected kinases (Table 5). In addition, their Specificity Score were very low (Table 6) indicating their marginal importance to the cell killing activities of 4e. Fgr kinase which ranked 7th in the list (Table 5) was the only SFK member that seems to be affected by the compound, albeit with low Specificity Score (1.03).
(§5) The compound 4e was spiked into HL60 cell lysate at different concentrations (0.001, 0.01, 0.1, 1, 10 and 50 μM). In addition, DMSO was also spiked in HL60 lysate at low concentration (2% v/v) as control. Samples were profiled on PamGene’s Tyrosine Kinase (PTK) arrays in technical replicates, covering a total of 196 phosphorylation sites. Frozen HL60 cultured cell pellet was sent to PamGene. […] Protein concentration was measured using standard Bradford assay as per PamGene SOPs. […]

Ron = assay: PamChip tyrosine kinase microarray, Ron; format: biochemical, human
Procedure: as §1, §2, §3

Lck = assay: PamChip tyrosine kinase microarray, Lck; format: biochemical, human
Procedure: as §1, §2, §4, §5

Fyn = assay: PamChip tyrosine kinase microarray, Fyn; format: biochemical, human
Procedure: as §1, §2, §4, §5

Lyn = assay: PamChip tyrosine kinase microarray, Lyn; format: biochemical, human
Procedure: as §1, §2, §4, §5

ITK = biological target: T3, ITK (Homo sapiens, UniProt Q08881); assay: PamChip tyrosine kinase microarray, ITK; format: biochemical
T3 construct: endogenous in cells; host or cells: HL60 lysate
T3 sequence (Q08881 1-620): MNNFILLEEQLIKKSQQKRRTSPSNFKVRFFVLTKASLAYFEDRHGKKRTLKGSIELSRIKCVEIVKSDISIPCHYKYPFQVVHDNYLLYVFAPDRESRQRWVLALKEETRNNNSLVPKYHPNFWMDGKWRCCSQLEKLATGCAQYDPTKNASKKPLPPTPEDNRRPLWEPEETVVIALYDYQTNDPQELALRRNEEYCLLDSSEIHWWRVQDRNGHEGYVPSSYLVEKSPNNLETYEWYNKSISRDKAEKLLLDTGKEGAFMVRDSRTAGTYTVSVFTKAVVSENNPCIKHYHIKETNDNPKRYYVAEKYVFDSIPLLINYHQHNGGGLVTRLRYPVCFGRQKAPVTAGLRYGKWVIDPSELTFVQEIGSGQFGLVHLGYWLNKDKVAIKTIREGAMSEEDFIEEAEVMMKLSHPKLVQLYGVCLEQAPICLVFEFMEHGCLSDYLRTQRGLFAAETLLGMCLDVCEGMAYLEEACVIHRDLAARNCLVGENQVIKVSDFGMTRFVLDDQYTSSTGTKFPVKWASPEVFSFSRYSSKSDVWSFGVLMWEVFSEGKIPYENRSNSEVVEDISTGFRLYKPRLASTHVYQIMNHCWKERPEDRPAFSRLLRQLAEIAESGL
Procedure: as §1, §2, §3

PDGFR[beta] = assay: PamChip tyrosine kinase microarray, PDGFR[beta]; format: biochemical, human
Procedure: as §1, §2, §3

T2 sequence (P07332 whole entry): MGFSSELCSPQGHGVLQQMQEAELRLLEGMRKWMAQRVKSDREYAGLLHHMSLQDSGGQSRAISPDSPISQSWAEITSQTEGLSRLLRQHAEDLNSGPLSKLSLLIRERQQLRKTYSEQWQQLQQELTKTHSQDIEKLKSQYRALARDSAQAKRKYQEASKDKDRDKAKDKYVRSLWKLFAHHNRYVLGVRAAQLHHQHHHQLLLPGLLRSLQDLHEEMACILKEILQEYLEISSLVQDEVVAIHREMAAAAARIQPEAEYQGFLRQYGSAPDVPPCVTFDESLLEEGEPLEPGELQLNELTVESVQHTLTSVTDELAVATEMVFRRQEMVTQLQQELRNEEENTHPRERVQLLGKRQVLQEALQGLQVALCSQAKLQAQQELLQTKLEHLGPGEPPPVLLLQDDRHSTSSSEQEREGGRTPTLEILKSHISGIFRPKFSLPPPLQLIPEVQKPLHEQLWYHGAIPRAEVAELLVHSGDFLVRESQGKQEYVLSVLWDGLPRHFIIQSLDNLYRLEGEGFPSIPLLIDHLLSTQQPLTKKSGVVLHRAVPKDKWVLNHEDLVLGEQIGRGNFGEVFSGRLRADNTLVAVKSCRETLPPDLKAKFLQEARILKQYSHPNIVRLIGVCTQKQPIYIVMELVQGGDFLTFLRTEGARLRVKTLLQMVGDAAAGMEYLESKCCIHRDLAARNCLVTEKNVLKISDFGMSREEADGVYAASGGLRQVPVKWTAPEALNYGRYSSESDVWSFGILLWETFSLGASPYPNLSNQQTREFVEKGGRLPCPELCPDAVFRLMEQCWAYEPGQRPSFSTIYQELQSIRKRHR
T1 sequence (P41240 whole entry): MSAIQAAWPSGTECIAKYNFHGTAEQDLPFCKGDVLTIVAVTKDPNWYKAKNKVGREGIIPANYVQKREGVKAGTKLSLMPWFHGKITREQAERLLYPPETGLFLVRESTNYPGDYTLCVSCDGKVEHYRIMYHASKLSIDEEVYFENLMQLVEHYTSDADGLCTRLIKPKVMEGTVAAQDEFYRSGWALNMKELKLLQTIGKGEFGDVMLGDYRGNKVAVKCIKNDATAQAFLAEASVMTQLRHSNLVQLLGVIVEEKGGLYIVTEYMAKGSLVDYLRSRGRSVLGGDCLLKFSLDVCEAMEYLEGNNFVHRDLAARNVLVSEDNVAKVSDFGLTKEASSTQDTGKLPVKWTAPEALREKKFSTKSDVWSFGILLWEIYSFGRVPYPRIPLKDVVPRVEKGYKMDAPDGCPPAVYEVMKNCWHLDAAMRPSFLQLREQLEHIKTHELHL

## O=C(Cc1ccc(NC(=O)c2cccc(Cl)c2)cc1)NCc1ccccc1 [Compound 4e, N-(4-(2-(benzylamino)-2-oxoethyl)phenyl)-3-chlorobenzamide]
TXK
  Mean Final Score: 1.9145
  Mean Kinase Statistic: -0.5527
  Mean Significance Score: 1.2373
  Mean Specificity Score: 0.6772
CSK
  Mean Final Score: 1.9356
  Mean Kinase Statistic: -0.5346
  Mean Significance Score: 1.2107
  Mean Specificity Score: 0.7249
Fes
  Mean Final Score: 2.3241
  Mean Kinase Statistic: -0.6958
  Mean Significance Score: 1.2140
  Mean Specificity Score: 1.1101
Src
  Mean Final Score: 0.7589
  Mean Kinase Statistic: -0.3527
  Mean Significance Score: 0.7353
  Mean Specificity Score: 0.0236
Ron
  Mean Final Score: 1.8398
  Mean Kinase Statistic: -0.6967
  Mean Significance Score: 1.0254
  Mean Specificity Score: 0.8144
Lck
  Mean Final Score: 1.2290
  Mean Kinase Statistic: -0.5054
  Mean Significance Score: 0.8208
  Mean Specificity Score: 0.4082
Fyn
  Mean Final Score: 1.4765
  Mean Kinase Statistic: -0.4963
  Mean Significance Score: 1.1307
  Mean Specificity Score: 0.3458
Lyn
  Mean Final Score: 1.9530
  Mean Kinase Statistic: -0.5775
  Mean Significance Score: 1.2715
  Mean Specificity Score: 0.6815
ITK
  Mean Final Score: 1.9173
  Mean Kinase Statistic: -0.5666
  Mean Significance Score: 1.0723
  Mean Specificity Score: 0.8451
PDGFR[beta]
  Mean Final Score: 1.8565
  Mean Kinase Statistic: -0.5885
  Mean Significance Score: 1.2570
  Mean Specificity Score: 0.5995

Source: paper PMC9166630, “SAR Probing of KX2-391 Provided Analogues With Juxtaposed Activity Profile Against Major Oncogenic Kinases” (Frontiers in Oncology, 2022)
